Results published in article PMC7957578, “N-(1,3,4-Oxadiazol-2-yl)Benzamides as Antibacterial Agents against Neisseria gonorrhoeae” (International Journal of Molecular Sciences, 2021).
≈ marks a conversion by molar mass, not a printed value. Read-outs that look alike come from different tables or passages of the source. Each block holds one compound with its values, some of them ahead of it.

Legend:
N. gonorrhoeae 165 = assay: MIC/MBC against N. gonorrhoeae clinical isolate 165; type: cell-based; details: Neisseria gonorrhoeae
Protocol: (§1) Briefly, bacteria were grown overnight on chocolate agar II at 37° C in the presence of 5% CO2. Afterwards, a bacterial suspension equivalent to 1.0 McFarland standard was prepared and diluted in brucella broth supplemented with yeast extract, neopeptone, hematin, pyridoxal, and NAD. Test agents were added in the first row of the 96-well plates and serially diluted along the plates. Plates were then incubated at 37° C in the presence of 5% CO2 for 24 h. […] Plates were then incubated at 37 ° C in the presence of 5% CO2 for 24 h. The MBC was categorized as the lowest concentration that reduced bacterial growth by 99.9% [45, 46, 47].

N. gonorrhoeae 166 = assay: MIC/MBC against N. gonorrhoeae clinical isolate 166; type: cell-based; details: Neisseria gonorrhoeae
Protocol: as §1

N. gonorrhoeae 200 = assay: MIC/MBC against N. gonorrhoeae clinical isolate 200; type: cell-based; details: Neisseria gonorrhoeae
Protocol: as §1

N. gonorrhoeae WHO L = assay: MIC/MBC against N. gonorrhoeae WHO L reference strain; type: cell-based; details: Neisseria gonorrhoeae
Protocol: as §1

N. gonorrhoeae 194 = assay: MIC/MBC against N. gonorrhoeae clinical isolate 194; type: cell-based; details: Neisseria gonorrhoeae
Protocol: as §1

N. gonorrhoeae 197 = assay: MIC/MBC against N. gonorrhoeae clinical isolate 197; type: cell-based; details: Neisseria gonorrhoeae
Protocol: as §1

[1] = system: N. gonorrhoeae strain 181; assay: MIC by broth microdilution against N. gonorrhoeae strain 181; type: cell-based, Neisseria gonorrhoeae; details: Neisseria gonorrhoeae
Protocol: as §1

VRE. faecium ATCC 700221 = assay: MIC/MBC (CLSI broth microdilution) against VRE faecium ATCC 700221; type: cell-based; details: Enterococcus, VRE faecium ATCC 700221
Protocol: (§2) The minimum inhibitory concentrations (MICs) of the tested compounds and control drugs, linezolid, vancomycin, and gentamicin, were determined using the broth microdilution method according to the guidelines outlined by the Clinical and Laboratory Standards Institute (CLSI) against clinically relevant bacterial (Staphylococcus aureus, MRSA, Escherichia coli, Enterococcus faecalis and Enterococcus faecium strains. S. aureus, MRSA, E. coli, Enterococcus faecalis and Enterococcus faecium were grown aerobically overnight on tryptone soy agar (TSA) plates at 37° C. Afterwards, a bacterial solution equivalent to 0.5 McFarland standard was prepared and diluted in cation-adjusted Mueller–Hinton broth (CAMHB) (for S. aureus, MRSA, and E. coli) to achieve a bacterial concentration of about 5 × 10^5 CFU/mL. Enterococcus faecalis and Enterococcus faecium 0.5 McFarland standard solution was diluted in tryptone soy broth (TSB) to achieve a bacterial concentration of about 5 × 10^5 CFU/mL. Compounds and control drugs were added in the first row of 96-well plates and serially diluted with the corresponding media containing bacteria. Plates were then incubated as previously described. […] The minimum bactericidal concentration (MBC) was tested by spotting 4 µL from wells with no growth onto TSA plates. Plates were incubated at 37 ° C for at least 18 h before recording the MBC. The MBC was categorized as the lowest concentration that reduced bacterial growth by 99.9% [45, 46, 47].

[2] = system: E. coli JW55031 (TolC Mutant); assay: MIC/MBC (CLSI broth microdilution) against E. coli TolC mutant; type: cell-based; details: Escherichia coli
Protocol: as §2

MRSA USA300 = assay: MIC/MBC (CLSI broth microdilution) against MRSA USA300; type: cell-based, methicillin-resistant Staphylococcus aureus; details: Staphylococcus aureus, MRSA USA300
Protocol: as §2

VRE. faecalisATCC 51575 = assay: MIC/MBC (CLSI broth microdilution) against VRE faecalis ATCC 51575; type: cell-based; details: Enterococcus, VRE faecalis ATCC 51575
Protocol: as §2

[3] = system: L. monocytogenes ATCC 19115; assay: MIC/MBC (CLSI broth microdilution) against L. monocytogenes ATCC 19115; type: cell-based; details: Listeria monocytogenes, ATCC19115, L. monocytogenes ATCC 19115
VRE. faecalis ATCC 51299 = assay: MIC/MBC (CLSI broth microdilution) against VRE faecalis ATCC 51299; type: cell-based; details: Enterococcus, VRE faecalis ATCC 51299
Protocol: as §2

S. aureus ATCC 25923 = assay: MIC/MBC (CLSI broth microdilution) against S. aureus ATCC 25923; type: cell-based; details: Staphylococcus aureus, ATCC25923, S. aureus ATCC 25923
Protocol: as §2

[4] = system: E. coli BW25113 (wild-type strain); assay: MIC/MBC (CLSI broth microdilution) against E. coli BW25113 wild type; type: cell-based, Escherichia coli; details: Escherichia coli, E. coli BW25113 wild-type strain
Protocol: as §2

E. faecalis ATCC 29212 = assay: MIC/MBC (CLSI broth microdilution) against E. faecalis ATCC 29212; type: cell-based; details: Enterococcus faecalis, ATCC29212, E. faecalis ATCC 29212
Protocol: as §2

[5] = N. gonorrhoeae strain 181, read-out: MIC

- MIC [1, 5]: 0.5 µg/mL (≈ 1.24 µM)
SMILES: O=C(Nc1nnc(-c2cccs2)o1)c1ccc(S(=O)(=O)C(F)(F)F)cc1 [Compound 6]

- MIC [1, 5]: 0.06 µg/mL (≈ 0.151 µM)
SMILES: O=C(Nc1nnc(-c2cccs2)o1)c1ccc(S(F)(F)(F)(F)F)cc1 [Compound 13]

- MIC [1, 5]: 0.06 µg/mL (≈ 0.162 µM)
SMILES: O=C(Nc1nnc(-c2cccs2)o1)c1ccc(SC(F)(F)F)cc1 [Compound 12]

The next lines start with the compound.

SMILES: CC[C@H]1OC(=O)[C@H](C)[C@@H](O[C@H]2C[C@@](C)(OC)[C@@H](O)[C@H](C)O2)[C@H](C)[C@@H](O[C@@H]2O[C@H](C)C[C@H](N(C)C)[C@H]2O)[C@](C)(O)C[C@@H](C)CN(C)[C@H](C)[C@@H](O)[C@]1(C)O [Azithromycin, azithromycin, reference compound]
- MBC (N. gonorrhoeae 165): 4 µg/mL (≈ 5.34 µM)
- MIC (N. gonorrhoeae 165): 1 µg/mL (≈ 1.34 µM)
- MBC (N. gonorrhoeae 166): 1 µg/mL (≈ 1.34 µM)
- MIC (N. gonorrhoeae 166): 0.5 µg/mL (≈ 0.668 µM)
- MBC (N. gonorrhoeae 200): 0.5 µg/mL (≈ 0.668 µM)
- MIC (N. gonorrhoeae 200): 0.5 µg/mL (≈ 0.668 µM)
- MBC (N. gonorrhoeae WHO L): 1 µg/mL (≈ 1.34 µM)
- MIC (N. gonorrhoeae WHO L): 0.5 µg/mL (≈ 0.668 µM)
- MBC (N. gonorrhoeae 194): 0.5 µg/mL (≈ 0.668 µM)
- MIC (N. gonorrhoeae 194): 0.25 µg/mL (≈ 0.334 µM)
- MBC (N. gonorrhoeae 197): 2 µg/mL (≈ 2.67 µM)
- MIC (N. gonorrhoeae 197): 0.5 µg/mL (≈ 0.668 µM)
- MIC [1]; 181: 256 µg/mL (≈ 342 µM)

SMILES: CC(=O)NC[C@H]1CN(c2ccc(N3CCOCC3)c(F)c2)C(=O)O1 [Linezolid, linezolid, reference compound]
- MBC (VRE. faecium ATCC 700221; read-out: MBC): 64 µg/mL (≈ 190 µM)
- MIC (VRE. faecium ATCC 700221; read-out: MIC): 2 µg/mL (≈ 5.93 µM)
- MBC [2]: > 64 µg/mL
- MIC [2]: 8 µg/mL (≈ 23.7 µM)
- MBC (MRSA USA300; read-out: MBC): 16 µg/mL (≈ 47.4 µM)
- MIC (MRSA USA300; read-out: MIC): 1 µg/mL (≈ 2.96 µM)
- MBC (VRE. faecalisATCC 51575; read-out: MBC): 64 µg/mL (≈ 190 µM)
- MIC (VRE. faecalisATCC 51575; read-out: MIC): 2 µg/mL (≈ 5.93 µM)
- MBC ([3]; read-out: MBC): 64 µg/mL (≈ 190 µM)
- MIC ([3]; read-out: MIC): 2 µg/mL (≈ 5.93 µM)
- MBC (VRE. faecalis ATCC 51299; read-out: MBC): 32 µg/mL (≈ 94.9 µM)
- MIC (VRE. faecalis ATCC 51299; read-out: MIC): 1 µg/mL (≈ 2.96 µM)
- MBC (S. aureus ATCC 25923; read-out: MBC): 64 µg/mL (≈ 190 µM)
- MIC (S. aureus ATCC 25923; read-out: MIC): 2 µg/mL (≈ 5.93 µM)
- MBC ([4]; read-out: MBC): > 64 µg/mL
- MIC ([4]; read-out: MIC): > 64 µg/mL
- MBC (E. faecalis ATCC 29212; read-out: MBC): 64 µg/mL (≈ 190 µM)
- MIC (E. faecalis ATCC 29212; read-out: MIC): 2 µg/mL (≈ 5.93 µM)
